# Measured values: patent publication US20140135310A1, “SULPHONAMIDE DERIVATIVES OF ALICYCLIC AMINES FOR THE TREATMENT OF CENTRAL NERVOUS SYSTEM DISEASES” (Adamed Sp. z o.o., priority 2011, published 2014)
# How the values were obtained:
# [1] = target: T1, hERG potassium channels (KCNH2 gene, expressed in CHO cells) (Homo sapiens, UniProt Q12809); assay: Ability to block hERG potassium channel (electrophysiology, IonWorks Quattro); type: cell-based; settings: % block of hERG current, test compound 1×10^−5 M
# T1 construct: expressed in transfected cells; host or cells: CHO cells
# Procedure: Moreover, the ability of the compounds of the invention to block potassium channel hERG was tested.
# Ability to block hERG potassium channels was determined using the electrophysiological method and cloned hERG potassium channels (KCNH2 gene, expressed in CHO cells) as biological material. The effects were evaluated using IonWorks™ Quattro system (MDS-AT).
# hERG current was elicited using a pulse pattern with fixed amplitudes (conditioning pre-pulse: −80 mV for 25 ms; test pulse: +40 mV for 80 ms) from a holding potential of 0 mV. hERG current was measured as a difference between the peak current at 1 ms after the test step to +40 mV and the steady-state current at the end of the step to +40 mV.
# Data acquisition and analyses was performed using the IonWorks Quattro™ system operation software (version 2.0.2; Molecular Devices Corporation, Union City, Calif.). Data were corrected for leak current.
# The hERG block was calculated as:
# % Block=(1−ITA/IControl)×100%,
# where IControl and ITA were the currents elicited by the test pulse in control and in the presence of a test article, respectively.
# Concentration-response data for the blocks were fit to an equation of the following form:
# % Block=% VC+{(% PC−% VC)−(% PC−% VC)/[1+([Test]/IC50)N]},
# [2] = tested on: dizocilpine-induced locomotor hyperactivity; assay: Dizocilpine (MK-801)-induced locomotor hyperactivity in mice; type: in vivo; settings: reversal of dizocilpine (MK-801)-induced hyperlocomotion, male CD-1 mice, i.p., 30 minutes before the experiment
# Procedure: Potential antipsychotic activity was tested for the representative compounds in mouse model of psychosis, involving the induction of locomotor hyperactivity by administering psychotomimetic substance—dizocilpine. The ability of a test compound to remove this effect is a measure of potential antipsychotic activity.
# Male CD-1 mice were group-housed for 2-3 day period in polycarbonate Makrolon type 3 cages (dimensions 26.5×15×42 cm) in an environmentally controlled, experimental room (ambient temperature 22-20° C.; relative humidity 50-60%; 12:12 light:dark cycle, lights on at 8:00), in groups of 15. Standard laboratory food (Ssniff M-Z) and filtered water were freely available. On the day before experiments the equipment produced “white noise” was turned on for 30 minutes and mice were weighted exact to 1 g. Animals were assigned randomly to treatment groups. All the experiments were performed by two observers unaware of the treatment applied between 9:00 and 14:00 on separate groups of animals. Mice were used only once and were killed immediately after the experiment.
# The locomotor activity was recorded with an Opto M3 multi-channel activity monitor (MuttiDevice Software v.1.3, Columbus Instruments). The mice were individually placed in plastic cages (22×12×13 cm) for 30 minutes habituation period, and then the crossings of each channel (ambulation) were counted during 1 h with data recording every 5 minutes. The cages were cleaned up with 70% ethanol after examining each mouse. Drugs were administered to 10 mice per treatment group. Test compounds were given 30 minutes before the experiment. Dizocilpine was administered 30 minutes before the test.
# Test compounds were prepared as a suspension in 1% aqueous solution of Tween 80, and dizocilpine was dissolved in distilled water immediately before administration. An injection volume of 10 ml/kg was used and all compounds were administered intraperitoneally (i.p.).
# [3] = target: T2, 5-HT reuptake (rat brain synaptosomes) (Rattus norvegicus, UniProt P31652); assay: 5-HT reuptake, [3H]5-HT incorporation into rat brain synaptosomes; type: biochemical; settings: 15 min/37° C., read-out: SERT IC50
# T2 construct: measuring [^3H]5-HT incorporation into rat brain synaptosomes; from tissue; host or cells: rat brain synaptosomes
# Procedure: 5-HT reuptake was tested according to Perovic, S. and Muller, W.E.G. (1995) Arzneim-Forsch. Drug Res., 45: 1145-1148 by measuring [^3H]5-HT incorporation into rat brain synaptosomes. Assay conditions are as follows:
# Tracer: [^3H]5-HT (0.2 μCi/ml)
# Incubation: 15 min/37° C.
# T1 sequence (Q12809 whole entry): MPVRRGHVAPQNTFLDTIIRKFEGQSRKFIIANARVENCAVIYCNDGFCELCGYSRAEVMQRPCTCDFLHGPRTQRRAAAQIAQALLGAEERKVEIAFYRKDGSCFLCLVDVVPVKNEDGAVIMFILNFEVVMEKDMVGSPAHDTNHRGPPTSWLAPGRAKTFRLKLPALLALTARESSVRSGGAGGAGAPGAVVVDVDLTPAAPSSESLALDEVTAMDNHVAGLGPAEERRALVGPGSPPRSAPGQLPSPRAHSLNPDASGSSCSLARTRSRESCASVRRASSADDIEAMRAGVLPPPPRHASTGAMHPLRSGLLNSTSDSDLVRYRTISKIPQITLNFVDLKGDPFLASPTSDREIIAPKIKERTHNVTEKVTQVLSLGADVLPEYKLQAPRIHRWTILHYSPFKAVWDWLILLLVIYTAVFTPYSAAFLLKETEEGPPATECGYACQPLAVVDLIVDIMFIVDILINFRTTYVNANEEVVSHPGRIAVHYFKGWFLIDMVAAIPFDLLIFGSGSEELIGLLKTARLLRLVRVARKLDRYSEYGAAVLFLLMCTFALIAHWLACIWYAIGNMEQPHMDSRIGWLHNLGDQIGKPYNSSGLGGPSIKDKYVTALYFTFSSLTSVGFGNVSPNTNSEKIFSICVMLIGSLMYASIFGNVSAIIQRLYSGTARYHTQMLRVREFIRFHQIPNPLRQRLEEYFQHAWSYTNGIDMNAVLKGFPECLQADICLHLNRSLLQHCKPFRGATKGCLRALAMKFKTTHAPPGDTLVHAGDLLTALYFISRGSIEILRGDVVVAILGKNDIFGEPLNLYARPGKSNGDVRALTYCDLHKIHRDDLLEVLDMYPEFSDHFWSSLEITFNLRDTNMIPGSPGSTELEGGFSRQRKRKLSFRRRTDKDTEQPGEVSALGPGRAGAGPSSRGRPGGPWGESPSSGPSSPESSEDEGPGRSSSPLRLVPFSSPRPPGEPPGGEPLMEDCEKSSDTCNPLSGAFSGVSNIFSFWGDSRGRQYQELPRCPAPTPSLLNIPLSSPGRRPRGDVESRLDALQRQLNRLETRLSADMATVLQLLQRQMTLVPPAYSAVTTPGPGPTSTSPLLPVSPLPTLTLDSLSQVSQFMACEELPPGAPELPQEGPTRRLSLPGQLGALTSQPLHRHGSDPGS
# T2 sequence (P31652 whole entry): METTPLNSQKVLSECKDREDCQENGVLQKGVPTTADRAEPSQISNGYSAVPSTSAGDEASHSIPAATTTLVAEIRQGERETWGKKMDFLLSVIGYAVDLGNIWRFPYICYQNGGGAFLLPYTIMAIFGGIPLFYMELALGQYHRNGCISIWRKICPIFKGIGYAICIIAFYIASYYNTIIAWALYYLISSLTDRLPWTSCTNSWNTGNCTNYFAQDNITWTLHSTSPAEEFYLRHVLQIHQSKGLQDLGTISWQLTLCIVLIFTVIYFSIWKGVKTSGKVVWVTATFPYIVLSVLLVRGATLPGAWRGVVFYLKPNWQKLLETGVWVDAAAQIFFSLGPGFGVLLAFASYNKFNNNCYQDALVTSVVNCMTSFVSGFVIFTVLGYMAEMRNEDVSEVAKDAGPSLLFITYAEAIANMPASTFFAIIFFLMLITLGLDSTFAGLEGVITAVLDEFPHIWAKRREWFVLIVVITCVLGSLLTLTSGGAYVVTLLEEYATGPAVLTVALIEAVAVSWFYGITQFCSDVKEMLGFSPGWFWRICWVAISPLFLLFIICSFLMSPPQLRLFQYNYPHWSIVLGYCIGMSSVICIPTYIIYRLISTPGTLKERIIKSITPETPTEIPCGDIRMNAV
SMILES,hERG [%] [1] [%],MED* [mg/kg] (minimum effective dose) [2],IC50 [3] [nM]
"O=S(=O)(NC1CCN(CCCc2noc3cc(F)ccc23)C1)c1ccc2ccccc2c1 (stereo not shown) [Compound 21, N-[1-[3-(6-Fluoro-1,2-benzoxazol-3-yl)propyl]pyrrolidin-3-yl]naphthalene-2-sulphonamide]",3.3,10,
"O=S(=O)(NC1CCN(CCCc2noc3cc(F)ccc23)C1)c1cc2ccccc2s1 (stereo not shown) [Compound 25, N-[1-[3-(6-Fluoro-1,2-benzoxazol-3-yl)propyl]pyrrolidin-3-yl]-benzothiophene-2-sulphonamide]",2.9,5,
"O=S(=O)(NC1CCN(CCCc2noc3cc(F)ccc23)C1)c1csc2ccccc12 (stereo not shown) [Compound 26, N-[1-[3-(6-Fluoro-1,2-benzoxazol-3-yl)propyl]pyrrolidin-3-yl]-benzothiophene-3-sulphonamide]",6.1,,
"O=S(=O)(NC1CCN(CCCc2noc3cc(F)ccc23)CC1)c1cccc2ccccc12 [Compound 34, N-[1-[3-(6-Fluoro-1,2-benzoxazol-3-yl)propyl]-4-piperidine]-naphthalene-1-sulphonamide]",−1.1,,
"O=S(=O)(NC1CCN(CCCc2c[nH]c3ccc(F)cc23)C1)c1ccc2ccccc2c1 (stereo not shown) [Compound 80, N-[1-[3-(5-Fluoro-1H-indol-3-yl)propyl]pyrrolidin-3-yl]naphthalene-2-sulphonamide]",,,2.1
"O=S(=O)(NC1CCN(CCCc2c[nH]c3ccc(Cl)cc23)C1)c1cccc(Cl)c1 (stereo not shown) [Compound 84, 3-Chloro-N-[1-[3-(5-chloro-1H-indol-3-yl)propyl]pyrrolidin-3-yl]benzenesulphonamide]",,,64
"O=S(=O)(NC1CN(CCOc2cccc3c2OCCO3)C1)c1cccc2ccccc12 [Compound 94, N-[1-[2-(2,3-Dihydro-1,4-benzodioxan-8-yloxy)ethyl]azetidin-3-yl]-naphthalene-1-sulphonamide]",4.8,,
"O=S(=O)(N[C@@H]1CCN(CCCc2noc3cc(F)ccc23)C1)c1cc2ccccc2s1 [Compound 196, N-[(3R)-1-[3-(6-Fluoro-1,2-benzoxazol-3-yl)propyl]pyrrolidin-3-yl]benzo-thiophene-2-sulphonamide]",,2.5,
